The text below walks through data of PMC8201324, “Pyrazoles and Pyrazolines as Anti-Inflammatory Agents” (Molecules, 2021).

Data set [1] can be described thus: Reducing activity of the stable radical DPPH. The format is biochemical. The method, then: The novel derivatives were studied for their interaction with the stable 2,2-diphenyl-1-picrylhydrazyl free radical (DPPH) at concentrations 50 µM, 100 µM, 200 µM and after 20 and 60 min (Table 3). This assay is based on the reduction of the DPPH by transferring an electron from the antioxidant. […] However, it seems that the interaction is dependent on the concentration and on the reaction time. From this point of view, it can be concluded that the acetyl pyrazolyl derivatives 2c and 2f seem to present the highest scavenging activities. An increase in concentration favors the activity. […] As for compounds 2a, 2b, 2c and 2f, activity seems to be time dependent at 200 µM. […] The presence of a chlorine group in 2e pyrazoline leads to an activity increase (compared to 2d) in concentration 200 µM. The acetyl derivative 2f presents better activity than 2b at 200 µM.
A stock solution (1% DMSO in the appropriate buffer with the tested compound diluted under sonication) was prepared for the in vitro assays from which several dilutions were made with the appropriate buffer. The in vitro experiments were performed at least in triplicate, and the standard deviation of absorbance was less than 10% of the mean.
A stock solution (10 mM) of the novel derivatives in DMSO was prepared and an equal volume of it was added to a solution of DPPH in absolute ethanol to reach final concentrations 50, 100 µM and 200 µM. The absorbance was recorded at 517 nm, after 20 and 60 min at room temperature (Table 3).

A short description of data set [2]: Experimental determination of lipophilicity as RM values (RP-TLC). The format is physicochemical. Also on record: key: RM = log[(1/Rf) − 1] from RP-TLC Rf values. The note with it: methanol/water 70/30 v/v, 24 °C, average of at least five measurements. The text has this:
Lipophilicity is the key physicochemical parameter of a bioactive molecule, linking solubility, ligand-target binding interactions and membrane permeability with absorption, distribution, bioavailability, metabolism and elimination (ADME) and toxicological effects, crucial for its biological activity. The reverse phase thin layer chromatography (RPTLC) method was used for the experimental determination of the lipophilic character of the synthesized compounds as RM values (Table 2). Lipophilicity was also theoretically calculated as clog P values, using the CLOGP Program of Biobyte Corp. and as LPSP-lipophilicity values through Spartan v.5.1.3. (Wavefunction Inc., Irvine, CA, USA). According to the calculated clog P values, as well as LPSP, the most lipophilic compounds were the compounds 2c, 2d, 2e and 2g. This observation was supported by the RM values (with the exception of 2g).
Lipophilicity as RM values was determined through reversed phase TLC (RP-TLC) on silica gel plates impregnated with 5% (v/v) liquid paraffin in light petroleum ether. Methanol/water mixture (70/30, v/v) was used a mobile phase. Closed chromatography tanks saturated with the mobile phase at 24 °C were used for the development of the plates while the spots were detected under UV light. For the determination of RM values, five individual measurements of Rf values were recorded, and the RM values were derived from the equation RM = log [(1/Rf) − 1] [42, 43] (Table 2).

The subject of data set [3] is acetic acid-induced writhing. The data set is described as follows: Anti-nociception writhing test (acetic acid). To be noted: 0.0057 mmol/kg body weight i.p., 0.6% acetic acid after 30 min. The format is in vivo, Fisher 344 rats. The text has this: The acetic acid-induced writhing test is a quick, simple and reproducible method, despite the fact that it lacks specialization. […] The animals (Fisher 344 rats), were housed under standard conditions, and received a diet of commercial food pellets and water ad libitum during the maintenance, but were entirely fasted during the experiment period. Both sexes were used, while pregnant females were excluded. Each group was composed of 6–15 animals. Our studies were in accordance with recognized guidelines on animal experimentation (guidelines for the care and use of laboratory animals published by the Greek Government 160/1991, based on EU regulations 86/609). Rats were kept in the Centre of the School of Veterinary Medicine (EL54 BIO42), Aristotle University of Thessaloniki, which is registered by the official state veterinary authorities (presidential degree 56/2013, in harmony with the European Directive 2010/63/EEC). The experimental protocols were approved by the Animal Ethics Committee of the Prefecture of Central Macedonia. For the study of the analgesic activity of the tested compounds, pain is provoked with acetic acid. Animals were divided in three five-membered groups, according to our reported method. After treatment with the tested compounds (0.0057 mmol/kg body weight; intraperitoneally) in the first group, the second group was used as a positive control (aspirin; 0.0057 mmol/kg body weight i.p.) and the third group served as the control in which saline was administered (negative control). After 30 min, 0.6% acetic acid (1 mL/kg body weight) was injected i.p. The number of writhes was recorded for each animal every 5 min during a subsequent 30 min period (Table 6).

Marks after values point to notes of the source that are not given here.

Turning to “1-(5-(4-((4-bromobenzyl)oxy)phenyl)-3-(thiophen-2-yl)-1H-pyrazol-1-yl)ethan-1-one [Compound 2c]”, in data set [1], the “RA% 50 µM 20 min” value is given as 17.1%, the “RA% 50 µM 60 min” value stood at 22.4%, the “RA% 100 µM 20 min” value was found to be 41.9% and the “RA% 100 µM 60 min” value is listed as 44.0%. Also, in data set [1], the “RA% 200 µM 20 min” value is 49.4% and the “RA% 200 µM 60 min” value was 59.2%. Moreover, the “RM (±SD)” value in data set [2] is listed as 0.68 ± 0.05.
Turning to “5-(4-((4-bromobenzyl)oxy)phenyl)-3-(4-chlorophenyl)-4,5-dihydro-1H-pyrazole [Compound 2e]”, in data set [1], the “RA% 50 µM 20 min” value is 9.5%, the “RA% 50 µM 60 min” value turned out to be 13.0%, the “RA% 100 µM 20 min” value turned out to be 14.8% and the “RA% 100 µM 60 min” value turned out to be 17.8%. For the same compound, in data set [1], the “RA% 200 µM 20 min” value is 25.6% and the “RA% 200 µM 60 min” value turned out to be 30.1%. In data set [2], the “RM (±SD)” value is reported as 0.87 ± 0.07. Besides, the “Writhing Inhibition (%)” value in data set [3] was 66.1 * %.
Turning to `c1ccc(C2=NNC(c3cccc4ccccc34)C2)cc1` (stereo not shown) [Compound 2a, 5-(naphthalen-1-yl)-3-phenyl-4,5-dihydro-1H-pyrazole], in data set [1], the “RA% 50 µM 20 min” value amounted to 15.0%, the “RA% 50 µM 60 min” value is on record as 20.0%, the “RA% 100 µM 20 min” value came to 22.9% and the “RA% 100 µM 60 min” value was found to be 32.0%. Also, in data set [1], the “RA% 200 µM 20 min” value turned out to be 37.2% and the “RA% 200 µM 60 min” value is 49.3%. The “RM (±SD)” value in data set [2] was 0.22 ± 0.2.
`Clc1ccc(C2=NNC(c3ccc4[nH]ccc4c3)C2)cc1` (stereo not shown) [Compound 2b, 5-(3-(4-chlorophenyl)-4,5-dihydro-1H-pyrazol-5-yl)-1H-indole]: in data set [1], the “RA% 50 µM 20 min” value is 19.3%, the “RA% 50 µM 60 min” value is on record as 25.0%, the “RA% 100 µM 20 min” value is 26.1% and the “RA% 100 µM 60 min” value is on record as 33.6%. In data set [1], the “RA% 200 µM 20 min” value was found to be 34.9% and the “RA% 200 µM 60 min” value worked out at 44.4%. In addition, the “RM (±SD)” value in data set [2] is on record as 0.23 ± 0.03.
As to `Brc1ccc(COc2ccc(C3CC(c4ccccc4)=NN3)cc2)cc1` (stereo not shown) [Compound 2d, 5-(4-((4-bromobenzyl)oxy)phenyl)-3-phenyl-4,5-dihydro-1H-pyrazole], in data set [1], the “RA% 50 µM 20 min” value is on record as 6.3%, the “RA% 50 µM 60 min” value is 9.5%, the “RA% 100 µM 20 min” value came out at 19.4% and the “RA% 100 µM 60 min” value is listed as 37.4%. In addition, in data set [1], the “RA% 200 µM 20 min” value came out at 9.4% and the “RA% 200 µM 60 min” value is reported as 14.9%. Besides, the “RM (±SD)” value in data set [2] is listed as 0.72 ± 0.06. Besides, in data set [3], the “Writhing Inhibition (%)” value is listed as 54.2 * %.
On to `CC(=O)n1nc(-c2ccccc2)cc1-c1ccc2[nH]ccc2c1` [Compound 2f, 1-(5-(1H-indol-5-yl)-3-phenyl-1H-pyrazol-1-yl)ethan-1-one], for which, in data set [1], the “RA% 50 µM 20 min” value came out at 21.0%, the “RA% 50 µM 60 min” value worked out at 24.7%, the “RA% 100 µM 20 min” value stood at 34.7% and the “RA% 100 µM 60 min” value came to 38.8%. Besides, in data set [1], the “RA% 200 µM 20 min” value is 50.1% and the “RA% 200 µM 60 min” value turned out to be 59.5%. In addition, in data set [2], the “RM (±SD)” value is on record as −0.07 ± 0.01.
As to `CC(=O)n1nc(-c2ccc(Cl)cc2)cc1-c1cccc2ccccc12` [Compound 2g, 1-(3-(4-chlorophenyl)-5-(naphthalen-1-yl)-1H-pyrazol-1-yl)ethan-1-one], in data set [1], the “RA% 50 µM 20 min” value is 9.0%, the “RA% 50 µM 60 min” value came out at 12.7%, the “RA% 100 µM 20 min” value was 11.2% and the “RA% 100 µM 60 min” value stood at 13.6%. For the same compound, in data set [1], the “RA% 200 µM 20 min” value is reported as 22.5% and the “RA% 200 µM 60 min” value is given as 27.7%. For the same compound, the “RM (±SD)” value in data set [2] is recorded as −0.59 ± 0.05.
As for `CC(=O)n1nc(-c2ccccc2)cc1-c1cccc(Oc2ccccc2)c1` [Compound 2h, 1-(5-(3-phenoxyphenyl)-3-phenyl-1H-pyrazol-1-yl)ethan-1-one], in data set [1], the “RA% 50 µM 20 min” value came to 6.7%, the “RA% 50 µM 60 min” value amounted to 9.5%, the “RA% 100 µM 20 min” value stood at 7.8% and the “RA% 100 µM 60 min” value came out at 9.6%. Moreover, in data set [1], the “RA% 200 µM 20 min” value worked out at 17.2% and the “RA% 200 µM 60 min” value is given as 20.9%. Moreover, the “RM (±SD)” value in data set [2] is 0.41 ± 0.02.
